This test relates to wild-type rat neonatal CMs. Description: Neonatal CM cell culture model: proliferation and apoptosis (planned). It counts as cell-based. The following applies: low concentrations 0.1-3 μM, 24 hours; expected. The source says:
The cells will then be assessed for cell proliferation by direct cell counting and [3H]-thymidine incorporation as well as by immunostaining for Ki67, BrdU and pH3. Apoptosis will also be evaluated, by TUNEL labeling and by staining of caspase-3. All results will be confirmed using a minimum of three independent determinations, and statistical evaluation will be performed using ANOVA or a Student's t-test, as appropriate.

On to `c1cc(SSc2ccns2)sn1` [NU9056], for which the “CM proliferation (cell counting, [3H]-thymidine, Ki67, BrdU, pH3)” value is on record as “promote CM proliferation”.

The values are drawn from patent US20220175738A1, “Tip60 Inhibitors and Methods of Use for Cardiovascular Disease” (The Medical College of Wisconsin, Inc., priority 2019, published 2022).
